Paper PMC12645191, “Dicarboxylate and dicarboxylic acid appended supramolecular self-associating amphiphiles as antimicrobial agents against high priority bacterial pathogens” (Organic & Biomolecular Chemistry, 2025)
Converted amounts (≈) assume the structure as drawn. “And” between values parts separate entries of the source, which are not always exact repeats. Identical values can stand only once. Each block holds one compound with its values, some of them ahead of it.

Legend:
[1] = kinetic solubility determination in PBS pH 7.4; conditions: pH 7.4, aqueous buffer, kinetic from dmso stock
[2] = quantitative (Q) 1H NMR spectroscopy, proportion of SSA becoming NMR silent (higher-order aggregates); format: physicochemical
Experimental: To confirm the presence of higher order self-associative structures quantitative (Q) ^1H NMR spectroscopy studies were undertaken at 5.6 mM in D2O 5% EtOH. Here the ^1H NMR resonances attributed to the EtOH are used as an internal standard.
Table S1 – Overview of results of the quantitative (Q) 1H NMR studies for 1, 3, 5, 7 and 9
5.0 % EtOH . Values given in % represent the observed proportion of the SSA that has become
Table S2 – Overview of results of the quantitative (Q) 1H NMR studies for 2, 4, 6, 8 and 10
5.0 % EtOH. Values given in % represent the observed proportion of anion and cation that has

[3] = dynamic light scattering (DLS) of SSA aggregates; format: physicochemical; conditions: 5.6 mM, H2O 5.0% EtOH, 298 K; listed as 4
Experimental: Dynamic light scattering (DLS) and zeta potential measurements in H2O 5.0% EtOH were used to determine the hydrodynamic diameter (dH) and stability of the higher-order SSA aggregates detected by (Q) ^1H NMR spectroscopy at 5.6 mM, Table 1. […] However, we are unable to confidently report a dH for 1 due to the instability of this system, which is supported by a zeta potential value of −26 mV, obtained for this SSA under the same experimental conditions. […] Due to the instability of these systems in the absence of solvent, attempts to further characterise these systems through SEM or AFM are not possible.[48]

[4] = tested on: P. aeruginosa PAO1; assay: inhibition of bacterial growth, OD600 after 20 h; format: cell-based, Pseudomonas aeruginosa; conditions: SSA 5.0 mM, 2.5% ethanol, negative = enhanced growth, listed as 4
Experimental: (§1) With the self-associative properties of 1–10 established, the antimicrobial activity of these SSAs were determined against a panel of clinically relevant, high-priority pathogens including: P. aeruginosa PAO1; Klebsiella pneumonia (K. pneumoniae) M6; E. coli NCTC 12923; Acinetobacter baumannii (A. baumannii) ATCC 17978; S. aureus ATCC 9144; Enterococcus faecalis (E. faecalis) NCTC 775; and Enterococcus faecium (E. faecium) NCTC 12204. […] However, it should be noted that the SSA stock solution was prepared in a H2O 5% EtOH solution, to ensure that the SSA aggregates formed were in line with those characterised within the scope of the SSA self-association studies.
(§2) Section 3: Biological methods
(§3) These methods were taken directly from UK Health and Security Office (UKHSA) standard […]
(§4) Preparation of Luria Broth media (LB): Yeast extract (5.0 g), tryptone (10.0 g) and sodium chloride (10.0 g) were dissolved in dH₂O (1.0 L) then divided into bottles and autoclaved.
(§5) Preparation of Luria Broth (LB) agar plates: Agar (6.0 g) was added to LB (400 mL) and autoclaved. Once cool, the LB agar was poured into sterile petri dishes under sterile conditions and allowed to set. LB plates were stored at 4 °C until use.
(§6) Preparation of bacterial plates: Sterile LB agar plates were streaked using streaked using the desired bacteria i) Pseudomonas aeruginosa (P.aeruginosa) PAO1, ii) Klebsiella pneumoniae (K. pneumoniae) M6 iii) E. coli NCTC 12923 and iv) Acinetobacter baumannii (A. baumannii) ATCC 17978 and Gram-positive i) Staphylococcus aureus (S. aureus) ATCC 9144 ii) Enterococcus faecalis (E. faecalis) NCTC 775 and iii) Enterococcus faecium (E. faecium ) NCTC 12204, then incubated at 37 °C overnight.
(§7) Preparation of Inoculum: An initial culture was made up by inoculating LB media (5 mL) with a single colony of bacteria under sterile conditions and incubated at 37 °C with shaking overnight. The following day, overnight bacterial cultures were subcultured into fresh LB medium to a starting OD600 of 0.01.
(§8) Preparation of 96 well microplate for MIC50: The 1:100 cell suspension (150 µL) was dispensed into individual wells under sterile conditions. SSAs (30 µL) were added to the wells to equal a total volume of 180 µL in the wells. Six repeats of each concentration for each SSA were created each plate. The plates were sealed using parafilm, then incubated at 37 °C in a microplate reader for 20 hours. OD600 endpoint data was used to generate growth curves. […]

[5] = tested on: K. pneumoniae M6; assay: inhibition of bacterial growth, OD600 after 20 h; format: cell-based, Klebsiella pneumoniae; conditions: SSA 5.0 mM, 2.5% ethanol, negative = enhanced growth, listed as 4
Experimental: as §1, §2, §3, §4, §5, §6, §7, §8

[6] = tested on: all Gram-positive bacteria tested; assay: inhibition of bacterial growth, span over the Gram-positive panel; format: cell-based, S. aureus, E. faecalis, E. faecium; conditions: SSA 5.0 mM, 20 hours; read-out: inhibition against all Gram-positive bacteria tested (span)
Experimental: as §1, §2, §3, §4
Preparation of Luria Broth (LB) agar plates: Agar (6.0 g) was added to LB (400 mL) and autoclaved. […]
Preparation of 96 well microplate for MIC50: The 1:100 cell suspension (150 µL) was dispensed into individual wells under sterile conditions. […] The plates were sealed using parafilm, then incubated at 37 °C in a microplate reader for 20 hours. […]

[7] = tested on: E. faecalis NCTC 775; assay: inhibition of bacterial growth, OD600 after 20 h; format: cell-based, Enterococcus faecalis; conditions: SSA 5.0 mM, 2.5% ethanol, negative = enhanced growth, listed as 4
Experimental: as §1, §2, §3, §4, §5, §6, §7, §8

[8] = tensiometry: critical aggregate concentration (CAC) and surface tension; format: physicochemical; conditions: listed as 4
Experimental: As the (Q) ^1H NMR spectroscopy experiments conducted at 5.6 mM in a D2O 5.0% EtOH solution confirmed the presence of higher-order self-associated structures with solid-like properties, concentration dependent surface tension measurements, obtained through tensiometry, were used to calculate critical aggregate concentration (CAC). Here the CAC is defined as the point at which an increase in SSA concentration no longer decreases surface tension but instead results in the formation of higher-order self-associated structures.

[9] = tested on: E. faecium NCTC 12204; assay: inhibition of bacterial growth, OD600 after 20 h; format: cell-based, Enterococcus faecium; conditions: SSA 5.0 mM, 2.5% ethanol, negative = enhanced growth, listed as 4
Experimental: as §1, §2, §3, §4, §5, §6, §7, §8

[10] = tested on: S. aureus ATCC 9144; assay: inhibition of bacterial growth, OD600 after 20 h; format: cell-based, Staphylococcus aureus; conditions: SSA 5.0 mM, 2.5% ethanol, negative = enhanced growth, listed as 4
Experimental: as §1, §2, §3, §4, §5, §6, §7, §8

[11] = tested on: E. coli NCTC 12923; assay: inhibition of bacterial growth, OD600 after 20 h; format: cell-based, Escherichia coli; conditions: SSA 5.0 mM, 2.5% ethanol, negative = enhanced growth, listed as 4
Experimental: as §1, §2, §3, §4, §5, §6, §7, §8

[12] = tested on: A. baumannii ATCC 17978; assay: inhibition of bacterial growth, OD600 after 20 h; format: cell-based, Acinetobacter baumannii; conditions: SSA 5.0 mM, 2.5% ethanol, negative = enhanced growth, listed as 4
Experimental: as §1, §2, §3, §4, §5, §6, §7, §8

[13] = 5.6 mM, D2O 5.0% EtOH, 298 K, listed as 4

solubility ([1]; PBS, Solubility in PBS pH 7.4, kinetic, upper limit set at 300 µM): 281 µM (≈ 83.2 µg/mL)
SMILES: O=C(O)Cc1ccccc1Nc1c(Cl)cccc1Cl [Diclofenac, reference compound]

SMILES: CC(=O)[C@H]1CC[C@H]2[C@@H]3CCC4=CC(=O)CC[C@]4(C)[C@H]3CC[C@]12C [Progesterone, reference compound]
solubility [1]: 14.5 µM (≈ 4.57 µg/mL)

(Q) 1H NMR spectroscopy, proportion NMR silent, acid or anion [2, 13]: 41%
(Q) 1H NMR spectroscopy, proportion NMR silent, cation [2, 13]: 43.2% and 43%
(Q) 1H NMR, proportion NMR silent, SSA acid or anion ([2]; ~112 mM, DMSO-d6 1.0% DCM): 0%
(Q) 1H NMR, proportion NMR silent, cation ([2]; ~112 mM, DMSO-d6 1.0% DCM): 0%
DLS Peak 2 maxima [3]: 5118 nm
Polydispersity index (%) [3]: 27.4 (± 0.8) %
dH (DLS intensity distribution peak 1 maxima) [3]: 255 nm
CAC ([8]; H2O 5.0% EtOH, 298 K): 22.26 mM and 22 mM
ST at CAC ([8]; H2O 5.0% EtOH, 298 K): 38 mN m^−1
Surface tension at CAC ([8]; H2O/5.0 % EtOH): 38.35 mN/m
SMILES: O=C(O)CC[C@@H](NC(=O)Nc1ccc(C(F)(F)F)cc1)C(=O)O [SSA 4]
Percentage inhibition of bacterial growth, PAO1 (P. aeruginosa) [4]: 10.30% and 10%
Percentage inhibition of bacterial growth, M6 (K. pneumoniae) [5]: 19.93% and 20%
inhibition at 5000 µM [6]: 99 to 100%
Percentage inhibition of bacterial growth, NCTC 775 (E. faecalis) [7]: 98.82% and 99%
Percentage inhibition of bacterial growth, NCTC 12204 (E. faecium) [9]: 99.74% and 100%
Percentage inhibition of bacterial growth, ATCC 9144 (S. aureus) [10]: 98.85% and 99%
Percentage inhibition of bacterial growth, NCTC 12923 (E. coli) [11]: 39.02% and 39%
Percentage inhibition of bacterial growth, ATCC 17978 (A. baumannii) [12]: -20.93% and −21%
